{
  "source": "patent US20240010635A1",
  "about": "“NOVEL INDIRUBIN DERIVATIVES HAVING HETEROBICYCLIC MOIETIES AND THE USE THEREOF” (priority 2022, published 2024)",
  "assay_type_in_all_cases": "biochemical",
  "key": {"RET V804L": {"target": "T1, RET V804L (Homo sapiens, UniProt P07949, V804L)", "T1 construct": "Recombinant proteins containing RET wt, RET (M918T) and RET (V804L) domains were purchased from Promega; purchased Promega V4473", "T1 sequence (P07949 724-1016 V804L limits assumed)": "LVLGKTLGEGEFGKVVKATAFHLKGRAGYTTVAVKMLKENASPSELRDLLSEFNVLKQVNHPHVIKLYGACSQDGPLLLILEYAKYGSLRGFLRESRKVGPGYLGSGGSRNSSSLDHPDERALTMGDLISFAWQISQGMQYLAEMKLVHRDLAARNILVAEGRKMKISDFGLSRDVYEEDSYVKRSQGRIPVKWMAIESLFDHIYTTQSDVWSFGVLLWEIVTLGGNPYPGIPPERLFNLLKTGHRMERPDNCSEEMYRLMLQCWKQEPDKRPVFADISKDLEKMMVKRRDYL", "assay": "ADP-Glo kinase assay, RET V804L", "conditions": "recombinant RET (V804L), 120 min room temperature, read-out: Enzyme activity (IC50, nM) RET V804L", "protocol": "(§1) Analysis performed in two steps. First, after kinase reaction, ADP-Glo™ reagent of equal volume was added to finish kinase reaction, and then the rest ATP was exhausted. Second, Kinase Detection Reagent was added to convert ADP to ATP and newly synthesized ATP was measured by luciferase/luciferin reaction at the same time. Generated light was measured by using luminometer. The measured luminescence amount can be applied to the ATP→ADP standard conversion curve to confirm the correlation with the ADP concentration.\n(§2) Recombinant proteins containing RET wt, RET (M918T) and RET (V804L) domains were purchased from Promega (cat #V8061, cat #VA7274, cat #V4473), respectively. According to the manufacturer's instructions, optimal enzyme, ATP, and substrate concentration were established using ADP-Glo™ Kinase Assay (Promega, USA). […] Then, ADP-Glo™ Reagent (5 μl) was added and reacted at room temperature for further 40 min. Lastly, Kinase Detection Reagent (10 μl) was added and reacted for 30 min more at room temperature, and then phosphorylation of substrate peptide was measured by measuring luciferase signal (Integration time 0.5-1 second) using SpectraMax ID5 reader (Molecular Devices LLC., San Jose, CA, USA). IC50 was calculated by nonlinear regression using Prism version 5.01 (GrapghPad)."}, "RET M918T": {"target": "T2, RET M918T (Homo sapiens, UniProt P07949, M918T)", "T2 construct": "Recombinant proteins containing RET wt, RET (M918T) and RET (V804L) domains were purchased from Promega; purchased Promega VA7274", "T2 sequence (P07949 724-1016 M918T limits assumed)": "T1 sequence (P07949 724-1016 V804L limits assumed) with L81V, M195T", "assay": "ADP-Glo kinase assay, RET M918T", "conditions": "recombinant RET (M918T), 120 min room temperature, read-out: Enzyme activity (IC50, nM) RET M918T", "protocol": "as §1, §2"}, "FLT3 D835Y": {"target": "T3, FLT3 D835Y (Homo sapiens, UniProt P36888, D835Y)", "T3 construct": "Recombinant proteins containing the FLT3 and FLT3 (D835Y) domains were purchased from Promega; purchased Promega V4514", "T3 sequence (P36888 610-943 D835Y limits assumed)": "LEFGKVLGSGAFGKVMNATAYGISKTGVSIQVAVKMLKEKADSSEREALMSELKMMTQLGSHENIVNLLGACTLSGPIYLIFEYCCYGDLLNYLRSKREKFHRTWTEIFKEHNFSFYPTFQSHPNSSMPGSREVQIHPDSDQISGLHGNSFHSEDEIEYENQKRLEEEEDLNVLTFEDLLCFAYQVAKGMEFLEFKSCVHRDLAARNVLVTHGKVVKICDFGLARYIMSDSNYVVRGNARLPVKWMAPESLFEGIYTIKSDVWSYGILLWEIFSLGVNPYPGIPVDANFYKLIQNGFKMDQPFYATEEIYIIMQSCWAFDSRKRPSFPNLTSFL", "assay": "ADP-Glo kinase assay, FLT3 D835Y", "conditions": "recombinant FLT3 (D835Y), 120 min room temperature, read-out: Enzyme activity (IC50, nM) FLT3 D835Y", "protocol": "FLT3 activity inhibition was measured by ADP-Glo kinase assay (Promega, cat #V9101). ADP-Glo kinase analysis method is an emission ADP detect method which measures kinase activity by quantification of ADP amount produced during kinase reaction and provides uniform high-throughput screening method.\nas §1\nRecombinant proteins containing the FLT3 and FLT3 (D835Y) domains were purchased from Promega (cat #V4064, cat #V4514), respectively. According to the manufacturer's instructions, optimal enzyme, ATP, and substrate concentration were established using the ADP-Glo™ Kinase Assay (Promega, USA). Kinase reaction buffer 5× (200 mM Tris-HCl, pH 7.5, 100 mM MgCl2, 0.5 mg/ml BSA) was diluted and used, and the diluted compound of the present invention (5×, 1 μl), FLT3 enzyme or FLT3/D835Y enzyme (2.5×, 2 μl) and substrate/ATP mixture (2.5×, 2 μl), were mixed sequentially and reacted at room temperature for 120 minutes. Then, ADP-Glo™ Reagent (5 μl) was added and reacted for 40 min at room temperature. Finally, after adding a reagent for detection (Kinase Detection Reagent, 10 μl), reacting at room temperature for 30 min, and then phosphorylation of substrate peptide was measured by measuring luciferase signal (Integration time 0.5-1 second) using SpectraMax ID5 reader (Molecular Devices LLC., San Jose, CA, USA). IC50 was calculated by nonlinear regression using Prism version 5.01 (GrapghPad)."}},
  "note": "Changes are numbered by the printed parent chain.",
  "data": [
    {"smiles": "O=C1Nc2ccc(F)cc2/C1=C1/Nc2ccccc2/C1=N\\OCCN[C@H]1[C@@H]2CNC[C@@H]21", "note": "[Example 7, (2Z,3E)-3-((2-((1R,5S,6s)-3-azabicyclo[3.1.0]hexan-6-ylamino)ethoxy)imino)-5′-fluoro-[2,3′-biindolinylidene]-2′-one]", "values": [
      {"measurement": "IC50", "setting": "RET V804L", "value": 0.742, "unit": "nM"},
      {"measurement": "IC50", "setting": "RET M918T", "value": 0.666, "unit": "nM"},
      {"measurement": "IC50", "setting": "FLT3 D835Y", "value": 0.37, "unit": "nM"}
    ]}
  ]
}
